# Like-named read-outs stand apart in the source and are kept apart here. Marks after values point to notes of the source that are not given here.
# What was measured:
# [1] = tested on: GABAA receptor; design: method as in Kim et al., 2000; conditions: i.c.v. infusion 1 pmol/10 μL/h for 7 days; cortex and CA3 sub-region of the hippocampus; ref Kim et al., 2000; cited from earlier work
# [2] = tested on: mice; design: method as in Hashimoto et al. (2007); conditions: ref Hashimoto et al. (2007), cited from earlier work; for effect on deficits in OR performance: repeated administration
# [3] = tested on: Long-Evans rats; design: method as in Redrobe et al., 2012; conditions: same subPCP model; ref Redrobe et al., 2012; cited from earlier work
# [4] = molecular target: T1, GABAB receptor (Rattus norvegicus, UniProt Q9Z0U4); assay: Ex vivo autoradiography, GABAB receptor saturation binding ([3H]CGP54626), medial prefrontal cortex; conditions: rat medial prefrontal cortex; for GABAB receptors Bmax: [3H]CGP54626
# T1 construct: 12 μm coronal sections were collected from an area ranging from approximately +4.2 mm to +2.3 mm anterior to Bregma; from tissue; host or cells: rat brain cryosections, medial prefrontal cortex (prelimbic and infralimbic)
# T1 sequence (Q9Z0U4 17-960 limits assumed): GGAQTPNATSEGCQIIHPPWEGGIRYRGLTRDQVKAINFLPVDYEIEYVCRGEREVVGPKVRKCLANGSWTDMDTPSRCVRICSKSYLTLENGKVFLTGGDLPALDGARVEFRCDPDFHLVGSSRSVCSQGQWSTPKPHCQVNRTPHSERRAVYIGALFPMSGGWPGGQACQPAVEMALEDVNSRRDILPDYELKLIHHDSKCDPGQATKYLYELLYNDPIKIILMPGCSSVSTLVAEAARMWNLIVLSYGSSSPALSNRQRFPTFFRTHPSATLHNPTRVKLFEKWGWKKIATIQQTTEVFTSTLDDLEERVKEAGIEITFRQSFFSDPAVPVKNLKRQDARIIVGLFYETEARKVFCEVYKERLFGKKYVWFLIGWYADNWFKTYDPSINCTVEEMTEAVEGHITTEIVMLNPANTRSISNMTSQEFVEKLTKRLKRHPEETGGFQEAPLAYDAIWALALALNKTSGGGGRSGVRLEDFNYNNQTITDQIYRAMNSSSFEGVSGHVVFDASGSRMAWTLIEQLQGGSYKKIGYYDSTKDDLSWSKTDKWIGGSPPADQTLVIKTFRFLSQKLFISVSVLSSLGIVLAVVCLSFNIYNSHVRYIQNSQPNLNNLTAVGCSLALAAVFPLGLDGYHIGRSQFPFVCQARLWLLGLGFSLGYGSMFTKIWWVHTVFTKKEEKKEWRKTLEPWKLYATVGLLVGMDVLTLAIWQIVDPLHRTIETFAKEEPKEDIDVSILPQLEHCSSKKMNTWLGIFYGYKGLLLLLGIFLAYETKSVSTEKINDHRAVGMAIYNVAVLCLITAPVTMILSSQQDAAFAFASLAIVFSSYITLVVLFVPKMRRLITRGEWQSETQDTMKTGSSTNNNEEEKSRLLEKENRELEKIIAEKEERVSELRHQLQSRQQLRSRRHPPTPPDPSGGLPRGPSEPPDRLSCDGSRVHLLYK
# T1 sequence (O88871 41-940 partner): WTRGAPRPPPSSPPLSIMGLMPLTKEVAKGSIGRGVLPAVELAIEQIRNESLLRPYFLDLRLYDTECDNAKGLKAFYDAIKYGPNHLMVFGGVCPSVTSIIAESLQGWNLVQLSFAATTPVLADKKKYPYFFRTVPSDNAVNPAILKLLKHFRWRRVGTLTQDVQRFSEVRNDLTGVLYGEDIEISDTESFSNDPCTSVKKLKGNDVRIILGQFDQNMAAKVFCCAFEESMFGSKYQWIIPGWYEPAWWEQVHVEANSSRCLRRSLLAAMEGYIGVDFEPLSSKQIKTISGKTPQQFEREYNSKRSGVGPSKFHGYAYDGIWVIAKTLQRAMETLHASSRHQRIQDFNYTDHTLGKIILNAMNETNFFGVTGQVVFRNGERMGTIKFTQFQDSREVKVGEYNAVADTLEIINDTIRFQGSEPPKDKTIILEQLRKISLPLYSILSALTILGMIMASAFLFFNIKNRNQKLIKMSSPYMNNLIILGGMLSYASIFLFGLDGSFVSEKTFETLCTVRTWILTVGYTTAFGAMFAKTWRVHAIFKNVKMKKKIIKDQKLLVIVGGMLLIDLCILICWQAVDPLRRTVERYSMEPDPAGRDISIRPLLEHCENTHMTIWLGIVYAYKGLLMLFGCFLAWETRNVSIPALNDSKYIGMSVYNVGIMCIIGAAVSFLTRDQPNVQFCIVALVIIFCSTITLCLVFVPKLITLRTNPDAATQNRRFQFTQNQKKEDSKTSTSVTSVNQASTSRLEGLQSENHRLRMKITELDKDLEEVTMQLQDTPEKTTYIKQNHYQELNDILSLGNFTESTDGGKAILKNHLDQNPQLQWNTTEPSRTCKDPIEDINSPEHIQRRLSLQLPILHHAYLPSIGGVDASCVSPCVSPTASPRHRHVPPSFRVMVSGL
# From the text: (§1) Rats used in ex vivo autoradiography (EVA) experiments were randomly assigned to one of four experimental groups characterized by either subchronic saline or PCP (as described above) along with either vehicle or vortioxetine-infused food (1.8 g vortioxetine/kg food weight, as described in the attentional set shifting task). On day 8 of PCP withdrawal, rats were anesthetized using CO2 and killed by decapitation. Brains were quickly and gently removed from the skull, flash frozen on powdered dry ice, and stored at -20°C until sectioning. Later, 12 μm coronal sections were collected from an area ranging from approximately +4.2 mm to +2.3 mm anterior to Bregma ([Paxinos and Watson, 1998]) using a cryostat (MicroM, Germany) and were thaw-mounted on glass microscope slides. This range of coronal slices was chosen in order to study the prelimbic and infralimbic subregions of the medial prefrontal cortex, given the importance of these regions in tests of executive function such as the attentional set shifting task ([Ng et al., 2007]). After the tissue mounted on the microscope slides had dried thoroughly (in order to reduce damage from freezing), slides were packed into slide boxes with desiccator pellets, and stored at -20°C for use in EVA saturation binding and competition experiments.
# (§2) Each of the EVA procedures used in this study are variations on a similar theme. On the day of an experiment, slide-boxes were defrosted under a constant stream of air at room temperature until the boxes were dry and equilibrated with the environment in terms of temperature. This step was undertaken in order to ensure brain tissue was not damaged by frosting due to a sudden change in humidity. Prior to any binding experiments, slides were preincubated in the appropriate preincubation buffer and dried at room temperature. Subsequently, tissue was incubated in an assay buffer containing a radioligand appropriate for the receptor of interest, then rinsed in assay buffer, and dried overnight in a vacuum desiccator. Specific information on the contents of the preincubation buffers, assay buffers and other assay conditions are listed in Table 2. Finally, slides were opposed to a tritium-sensitive phosphor screen (Fuji imaging plate, GE Healthcare, Pittsburgh, PA, United States) for 5 days before being read in a phosphorimager (Typhoon FLA7000, GE Healthcare). Analysis methods are listed below under statistical analyses.
# (§3) In saturation binding experiments, the concentration of the relevant radioligand in the assay buffer was systematically varied in order to determine the KD and Bmax of the receptor in question. At each radioligand concentration, the non-specific binding was determined on a separate slide by including a high concentration of a non-radioactive competitor ligand in the assay buffer along with the radioligand. For GABAA receptor saturation binding experiments, [^3H]muscimol was examined in quarter log steps ranging from 0.56 to 300 nM. For GABAB receptor saturation binding experiments, [^3H]CGP54626 was examined in quarter log steps ranging from 0.17 to 100 nM.
# For saturation binding studies, the primary dependent measures were pKD and Bmax. First, a standard curve was generated by measuring optical intensity from a slide of tritium standards (American Radiolabeled Chemicals, St. Louis, MO, United States) included in the slide cassette during exposure. A linear regression was performed to determine the relationship between intensity and bound radioactivity (measured on the standards in units of μCi/g). Next, average intensity values from the non-specific bound condition for each concentration of radioligand was subtracted from intensity values from the total bound condition to produce a measure of specific binding for each radioligand concentration. These optical intensity values were transformed into bound radioactivity (expressed as nCi/mg) measurements by interpolation from the standard curve noted above. […]
# [5] = molecular target: GABAA receptor; assay: Ex vivo autoradiography, GABAA receptor saturation binding ([3H]muscimol), medial prefrontal cortex; design: species or system rat; conditions: rat medial prefrontal cortex
# From the text: as §1, §2, §3
# For saturation binding studies, the primary dependent measures were pKD and Bmax. […] A linear regression was performed to determine the relationship between intensity and bound radioactivity (measured on the standards in units of μCi/g). […] These optical intensity values were transformed into bound radioactivity (expressed as nCi/mg) measurements by interpolation from the standard curve noted above. […]
# [6] = molecular target: sigma 1 receptors; design: method as in Sanchez et al., 2003; conditions: ref Sanchez et al., 2003; cited from earlier work
# [7] = tested on: Long-Evans rats; assay: Attentional set-shifting task (AST) in subchronic PCP-treated rats; type: in vivo, rat; conditions: for trials to criterion vs vehicle/vehicle or PCP/vehicle, EDR discrimination / trials to criterion vs PCP/vehicle, ED discrimination: subPCP-treated rats
# Procedure: Subchronic PCP treatment: The subPCP administration regimen used in rats was conducted as described in ([Goetghebeur and Dias, 2009]), which is a reliable method for inducing deficits in our hands. Rats in the subPCP experiments received injections of 5 mg/mL PCP or vehicle (saline) s.c. at a 1 mL/kg injection volume twice per day for 7 days. […] The mouse subPCP regimen was conducted as described in [Pedersen et al. (2014)]. Briefly, mice received vehicle or PCP (1.3 mg/mL concentration, 10 mL/kg injection volume) s.c once per day for 14 days followed by a 7-day washout prior to experimentation.
# Each test used male Long-Evans rats (Charles River, United States) aged 5–6 weeks when arriving at the research facility.
# The attentional set-shifting test (AST) methods used here were adapted from [Goetghebeur and Dias (2009)]. The apparatus used for the AST test was a 44 cm × 64 cm × 30 cm black non-transparent Perspex test box, divided into 3 equal-sized areas (a starting area separated from a choice area subdivided in two). In the choice area, two 11 cm diameter terracotta pots were placed recessed into the box floor (with a 2 cm lip remaining above the floor) and separated by a divider. Odor (oils from The Body Shop®, United Kingdom) and media cues (not previously presented to the rats) were added to the pots.
# Beginning on day 3 after the cessation of PCP administration, rats were subjected to a habituation period and trained to dig for a diet reward (half a Honey Loop cereal, Nestlé®) in terracotta pots filled with sawdust. On day 7 of PCP washout, rats were subjected to a single training session in which they were required to discriminate between two pots in order to find the reward. These discriminations were either based on differences in the digging media or the pot’s odor. On day 8 rats were presented with a series of increasingly difficult discriminations: a simple discrimination (SD), a compound discrimination (CD), two intra-dimensional shifts (ID1, ID2), an intra-dimensional shift reversal (ID2R), an extra-dimensional shift (ED) and an extra-dimensional shift reversal (EDR; see Table 1). Rats were required to meet a training criterion before moving on to a new discrimination type (for specifics, see Statistical Analysis, below).
# The first trial of each discrimination stage was a discovery trial in which rats were allowed to dig in both pots, and to self-correct if digging in the wrong pot. Rats were only given one discovery trial. The discovery trial was included in the trials to criterion if the rat dug first in the correct pot, but not if the rat self-corrected an incorrect initial dig.
# In the acute vortioxetine study, prior to the start of behavioral experiments on Day 8 of washout from PCP treatment, animals were randomly administered either 20% CD (Veh), […], or 64 mg/kg modafinil 30 min p.o. as described above (included as a positive control). Thus, the treatment groups in the acute vortioxetine study were as follows: Veh/Veh, PCP/Veh, PCP/1 mg/kg vortioxetine, PCP/3 mg/kg vortioxetine, PCP/10 mg/kg vortioxetine, or PCP/64 mg/kg modafinil.
# Food dosing lasted from the first day of sub-chronic PCP administration and until the last day of the washout period (total of 14 days). After the end of the washout period where behavioral testing started, rats were fed with the same conditioned diet, however, under food restriction (∼11 g of diet per day per rat). In addition, some PCP-treated animals were fed vehicle food, but received acute injections of either 10 mg/kg vortioxetine, or 64 mg/kg modafinil, as described above. The treatment groups for the subchronic vortioxetine administration study were as follows: Veh/Veh, PCP/Veh, PCP/0.22 g/kg vortioxetine food, PCP/1.8 g/kg vortioxetine food, PCP/10 mg/kg vortioxetine 1 h s.c., or PCP/64 mg/kg 30 min p.o.
# A third experiment was conducted to examine the effects of acute SERT inhibition or 5-HT3 receptor antagonism on subPCP-induced AST impairments. […]
# [8] = tested on: SERT; conditions: ref Pehrson et al., 2015; cited from earlier work
# [9] = acute vortioxetine study, 64 mg/kg 30 min p.o., vs PCP/Veh
# [10] = subchronic vortioxetine study, acute 64 mg/kg, p < 0.001
compound,measurement,setting,value
C[C@]12N[C@H](Cc3ccccc31)c1ccccc12 [MK-801],"GABAA receptor binding ([3H]-muscimol, [3H]-flunitrazepam)",[1],significant increase
CCCN(CCC)CCc1ccc(OC)c(OCCc2ccccc2)c1 [NE-100],effect on fluvoxamine's reversal of OR deficits,[2]; sigma1 receptor antagonist given with fluvoxamine,blocked this effect
FC(F)c1ncn2c1Cn1ncnc1-c1cc(Br)ccc1-2 [RO4938581],"attenuation of subPCP-induced impairment, ED discrimination of the AST",[3],significantly attenuated
same,"attenuation of subPCP-induced impairment, EDR discrimination of the AST",[3],significantly attenuated
C[C@H](NC[C@H](O)CP(=O)(O)CC1CCCCC1)c1ccc(Cl)c(Cl)c1 [[^3H]CGP54626],GABAB receptors Bmax,[4]; treatment group PCP/Veh,414 ± 33^a fmol/mg
same,GABAB receptors Bmax,[4]; treatment group PCP/Vor,"342 ± 27^a,c fmol/mg"
same,GABAB receptors Bmax,[4]; treatment group Veh/Veh,541 ± 38 fmol/mg
same,GABAB receptors Bmax,[4]; treatment group Veh/Vor,475 ± 34 fmol/mg
same,GABAB receptors pKD ([3H]CGP54626),[4]; treatment group PCP/Veh,8.7 ± 0.08
same,GABAB receptors pKD ([3H]CGP54626),[4]; treatment group PCP/Vor,8.7 ± 0.06
same,GABAB receptors pKD ([3H]CGP54626),[4]; treatment group Veh/Veh,8.6 ± 0.04
same,GABAB receptors pKD ([3H]CGP54626),[4]; treatment group Veh/Vor,8.6 ± 0.08
NCc1cc(=O)[nH]o1 [[^3H]muscimol],GABAA receptors pKD ([3H]muscimol),[5]; treatment group PCP/Veh,7.8 ± 0.03
same,GABAA receptors pKD ([3H]muscimol),[5]; treatment group PCP/Vor,"7.6 ± 0.03^a,b,c"
same,GABAA receptors pKD ([3H]muscimol),[5]; treatment group Veh/Veh,7.7 ± 0.03
same,GABAA receptors pKD ([3H]muscimol),[5]; treatment group Veh/Vor,7.8 ± 0.06
CN(C)CCC[C@@]1(c2ccc(F)cc2)OCc2cc(C#N)ccc21 [escitalopram],Ki,[6],~0.1 µM
same,"trials to criterion vs vehicle/vehicle or PCP/vehicle, EDR discrimination",[7]; acute 0.5 mg/kg 1 h s.c.,did not differ
same,"trials to criterion vs PCP/vehicle, ED discrimination","[7]; acute 0.5 mg/kg 1 h s.c., p < 0.001",significant reductions
COCCCC/C(=N\OCCN)c1ccc(C(F)(F)F)cc1 [fluvoxamine],effect on deficits in OR performance,[2],reversed deficits
same,effect on subPCP-induced impairments in OR performance,[2]; single supra-pharmacological dose 20 mg/kg,improved
same,SERT occupancy ED80,[8],≈ 1.8 mg/kg
"NC(=O)C[S+]([O-])C(c1ccccc1)c1ccccc1 (centres unmarked) [modafinil, Modafinil]","reversal of subPCP-induced impairment, ED discrimination (trials to criterion)",[7]; [9],significantly reversed
same,"reversal of subPCP-induced impairment, EDR discrimination (trials to criterion)",[7]; [9],neither acute vortioxetine nor modafinil significantly reversed
same,"trials to criterion vs PCP/vehicle, ED discrimination","[7]; ondansetron/escitalopram study, 64 mg/kg 30 min p.o., p < 0.001",significant reductions
same,"trials to criterion vs vehicle/vehicle or PCP/vehicle, EDR discrimination","[7]; ondansetron/escitalopram study, 64 mg/kg 30 min p.o., p < 0.05",significantly fewer trials
same,"AST performance in subPCP-treated rats, ED",[7]; [10],significantly improved performance
same,"AST performance in subPCP-treated rats, EDR",[7]; [10],significantly improved performance
Cc1nccn1CC1CCc2c(c3ccccc3n2C)C1=O (centres unmarked) [ondansetron],"trials to criterion vs vehicle/vehicle or PCP/vehicle, EDR discrimination",[7]; acute 1.6 mg/kg 1 h s.c.,did not differ
same,"trials to criterion vs PCP/vehicle, ED discrimination","[7]; acute 1.6 mg/kg 1 h s.c., p < 0.05",significant reductions
Fc1ccc([C@@H]2CCNC[C@H]2COc2ccc3c(c2)OCO3)cc1 [paroxetine],effect on deficits in OR performance,[2],but not paroxetine reversed deficits
same,effect on subPCP-induced impairments in OR performance,[2]; single supra-pharmacological dose 10 mg/kg,improved
